How the values were obtained:
Experiment in all cases: combination Emax (second highest fraction inhibited in the dose matrix, 72 h); higher = more inhibition; extreme values may be limits of the assay
[1] = system: LK-2 (Squamous Cell Lung Carcinoma)
Summary of the method: (§1)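 After 24 hours at 37°C and 5% CO2 in 1536-well plates, cells in DMEM/F12 or RPMI plus 10% FBS received two-drug dose matrices for 72 hours. Viability came from CellTiter-Glo 2.0 luminescence and was scaled as inhibition, anchored at 0 by vehicle wells and at 1 by blank wells. Combination Emax is taken as the second-highest inhibition in the matrix, and Bliss excess as the observed combination effect less EA + EB − EA·EB, with EA and EB the single-agent effects.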

[2] = system: OAW-42 (Ovarian Carcinoma)
Summary of the method: as §1

[3] = system: SK-PN-DW (Other Solid Carcinomas)
Summary of the method: as §1

[4] = system: FADU (Head and Neck Carcinoma)
Summary of the method: as §1

LN-229 (Glioblastoma) = system: LN-229 (Glioblastoma)
Summary of the method: as §1

[5] = system: RKN (Other Solid Carcinomas)
Summary of the method: as §1

[6] = system: HEC-1 (Endometrial Carcinoma)
Summary of the method: as §1

[7] = system: 23132-87 (Gastric Carcinoma)
Summary of the method: as §1

[8] = system: L-1236 (Hodgkin's Lymphoma)
Summary of the method: as §1

[9] = system: NCI-H23 (Lung Adenocarcinoma)
Summary of the method: as §1

[10] = system: SU-DHL-10 (B-Cell Non-Hodgkin's Lymphoma)
Summary of the method: as §1

SF539 (Glioblastoma) = system: SF539 (Glioblastoma)
Summary of the method: as §1

[11] = system: SHP-77 (Small Cell Lung Carcinoma)
Summary of the method: as §1

GB-1 (Glioblastoma) = system: GB-1 (Glioblastoma)
Summary of the method: as §1

[12] = system: HCT-15 (Colorectal Carcinoma)
Summary of the method: as §1

WM278 (Melanoma) = system: WM278 (Melanoma)
Summary of the method: as §1

[13] = system: OPM-2 (Plasma Cell Myeloma)
Summary of the method: as §1

[14] = system: LXF-289 (Lung Adenocarcinoma)
Summary of the method: as §1

IST-MES1 (Mesothelioma) = system: IST-MES1 (Mesothelioma)
Summary of the method: as §1

[15] = system: TE-8 (Esophageal Squamous Cell Carcinoma)
Summary of the method: as §1

Structure (SMILES)	combination Emax [1]	combination Emax [2]	combination Emax [3]	combination Emax [4]	combination Emax (LN-229 (Glioblastoma))	combination Emax [5]	combination Emax [6]	combination Emax [7]	combination Emax [8]	combination Emax [9]	combination Emax [10]	combination Emax (SF539 (Glioblastoma))	combination Emax [11]	combination Emax (GB-1 (Glioblastoma))	combination Emax [12]	combination Emax (WM278 (Melanoma))	combination Emax [13]	combination Emax [14]	combination Emax (IST-MES1 (Mesothelioma))	combination Emax [15]
CN(C)CCCOc1ccc(-c2ccc3ncc4c(c3c2)n(C2CCOCC2)c(=O)n4C)cn1 [AZD0156] + O=C(c1cc(Cc2n[nH]c(=O)c3ccccc23)ccc1F)N1CCN(C(=O)C2CC2)CC1 [Olaparib] (first compound max 3 µM, partner max 3 µM)	0.372	0.282	0.289	0.258	0.107	0.214	0.139	0.644	0.326	0.117	0.342	0.501	0.209	0.238	0.378	0.209	0.231	0.4	0.212	–
C=CCn1c(=O)c2cnc(Nc3ccc(N4CCN(C)CC4)cc3)nc2n1-c1cccc(C(C)(C)O)n1 [AZD1775] + C1CN(CCC1(C(=O)N[C@@H](CCO)C2=CC=C(C=C2)Cl)N)C3=NC=NC4=C3C=CN4 [Capivasertib] (first compound max 3 µM, partner max 3 µM)	0.941	0.467	0.783	0.644	0.419	0.762	0.615	0.829	0.876	0.908	1	0.967	0.885	0.625	0.896	0.389	0.967	0.836	0.292	–
CS(=O)(=O)CCNCc1ccc(-c2ccc3ncnc(Nc4ccc(OCc5cccc(F)c5)c(Cl)c4)c3c2)o1 [Lapatinib] + NC1(c2ccc(-c3nc4ccn5c(=O)[nH]nc5c4cc3-c3ccccc3)cc2)CCC1 [MK-2206] (first compound max 10 µM, 7x7, partner max 10 µM)	0.892	0.819	0.933	–	0.207	0.346	–	–	0.888	0.338	–	0.953	0.633	–	–	–	0.972	–	0.638	0.52
CC(=O)c1c(C)c2cnc(Nc3ccc(N4CCNCC4)cn3)nc2n(C2CCCC2)c1=O [Palbociclib] + CN(CC[C@H](CSC1=CC=CC=C1)NC2=C(C=C(C=C2)S(=O)(=O)NC(=O)C3=CC=C(C=C3)N4CCC(CC4)[C@H](C5=CC=CC=C5C6=CC=C(C=C6)Cl)O)S(=O)(=O)C(F)(F)F)CCO [AZD4320] (first compound max 10 µM, 7x7, partner max 1 µM)	–	0.562	–	0.356	0.126	–	0.298	0.578	–	0.312	0.995	–	–	0.209	0.726	0.711	–	0.449	–	–
COc1cccc2c1C(=O)c1c(O)c3c(c(O)c1C2=O)C[C@@](O)(C(=O)CO)C[C@@H]3O[C@H]1C[C@H](N)[C@H](O)[C@H](C)O1 [Doxorubicin] + Cc1cc2ncnn2cc1Nc1ncc2c(n1)n(C1CCOCC1)c(=O)n2C [AZD7648] (first compound max 1 µM, 7x7, partner max 10 µM)	0.632	–	0.814	0.928	0.609	0.693	0.367	0.82	0.682	0.588	0.975	0.934	0.562	0.418	0.742	0.631	0.845	0.4	0.767	0.774
C=CCn1c(=O)c2cnc(Nc3ccc(N4CCN(C)CC4)cc3)nc2n1-c1cccc(C(C)(C)O)n1 [AZD1775] + O=C(c1cc(Cc2n[nH]c(=O)c3ccccc23)ccc1F)N1CCN(C(=O)C2CC2)CC1 [Olaparib] (first compound max 1 µM, partner max 10 µM)	0.914	–	0.913	0.591	0.258	0.355	0.119	0.605	0.746	0.761	0.962	1	0.443	0.318	0.443	0.209	0.864	0.355	0.334	0.865
C[C@@H]1COCCN1c1cc(C2([S@](C)(=N)=O)CC2)nc(-c2ccnc3[nH]ccc23)n1 [AZD6738] + O=C(c1cc(Cc2n[nH]c(=O)c3ccccc23)ccc1F)N1CCN(C(=O)C2CC2)CC1 [Olaparib] (first compound max 10 µM, 7x7, partner max 10 µM)	0.485	–	0.947	0.775	0.539	0.228	0.143	0.768	0.583	0.753	0.944	0.935	0.754	0.478	0.832	0.233	0.75	0.516	0.353	0.757
COc1cccc(OCCCN)c1-c1cc(Nc2cnc(C#N)cn2)n[nH]1 [Prexasertib] + O=C(c1cc(Cc2n[nH]c(=O)c3ccccc23)ccc1F)N1CCN(C(=O)C2CC2)CC1 [Olaparib] (first compound max 1 µM, 7x7, partner max 10 µM)	0.799	–	0.937	0.897	0.551	0.678	0.416	0.87	0.831	0.879	1	1	0.819	0.439	0.883	0.627	0.943	0.783	0.283	0.902
COc1cccc(OCCCN)c1-c1cc(Nc2cnc(C#N)cn2)n[nH]1 [Prexasertib] + CN(C)CCCOc1ccc(-c2ccc3ncc4c(c3c2)n(C2CCOCC2)c(=O)n4C)cn1 [AZD0156] (first compound max 1 µM, 7x7, partner max 1 µM)	0.726	–	0.948	0.808	0.725	0.67	0.655	0.926	0.792	0.882	0.999	0.963	0.829	0.485	0.92	0.574	0.936	0.772	0.218	0.914
C=CCn1c(=O)c2cnc(Nc3ccc(N4CCN(C)CC4)cc3)nc2n1-c1cccc(C(C)(C)O)n1 [AZD1775] + C[C@@H]1COCCN1C2=NC(=NC(=C2)C3(CC3)[S@](=N)(=O)C)C4=C5C=CNC5=NC=C4 [AZD6738] (first compound max 1 µM, partner max 10 µM)	0.882	–	0.955	0.875	0.59	0.35	0.638	0.918	0.782	0.913	1	1	0.827	0.595	0.933	0.44	0.893	0.771	0.597	0.932
C[C@@H](c1ccc2nccn2c1)n1nnc2ncc(-c3cnn(C)c3)nc21 [Savolitinib] + CN(CC[C@H](CSC1=CC=CC=C1)NC2=C(C=C(C=C2)S(=O)(=O)NC(=O)C3=CC=C(C=C3)N4CCC(CC4)[C@H](C5=CC=CC=C5C6=CC=C(C=C6)Cl)O)S(=O)(=O)C(F)(F)F)CCO [AZD4320] (first compound max 1 µM, 7x7, partner max 1 µM)	–	0.275	–	0.221	0.187	–	0.423	0.338	–	0.316	0.0854	–	–	0.15	0.132	0.55	–	0.188	–	–
Cc1cc2ncnn2cc1Nc1ncc2c(n1)n(C1CCOCC1)c(=O)n2C [AZD7648] + O=C(c1cc(Cc2n[nH]c(=O)c3ccccc23)ccc1F)N1CCN(C(=O)C2CC2)CC1 [Olaparib] (first compound max 10 µM, 7x7, partner max 10 µM)	0.335	–	0.395	0.237	0.0989	0.189	0.114	0.239	0.238	0.213	0.16	0.406	0.233	0.23	0.501	0.0954	0.294	0.177	0.234	0.184
COc1cc2c(cc1OCCCCCOc1cc3c(cc1OC)C(=O)N1C=C(C)C[C@H]1C=N3)N=C[C@@H]1CC(C)=CN1C2=O [SG3199] + O=C(c1cc(Cc2n[nH]c(=O)c3ccccc23)ccc1F)N1CCN(C(=O)C2CC2)CC1 [Olaparib] (first compound max 0.001 µM, 7x7, partner max 10 µM)	0.28	–	0.393	0.115	0.0777	0.0618	0.176	0.3	0.196	0.253	0.23	0.268	0.223	0.141	0.264	0.0771	0.0651	0.119	0.218	0.109
Cc1cc2ncnn2cc1Nc1ncc2c(n1)n(C1CCOCC1)c(=O)n2C [AZD7648] + CN(C)CCCOc1ccc(-c2ccc3ncc4c(c3c2)n(C2CCOCC2)c(=O)n4C)cn1 [AZD0156] (first compound max 10 µM, 7x7, partner max 1 µM)	0.269	–	0.303	0.111	0.146	0.194	0.002	0.0669	0.306	0.103	0.302	0.352	0.223	0.19	0.267	0.188	0.556	0.201	0.239	0.325

Source: the supplement of paper PMC11061612
